One data set deals with ALOMY. In words: Post-emergence herbicidal effect, greenhouse pot test. Type of data set: in vivo, Alopecurus myosuroides. Conditions: Alopecurus myosuroides, 504 h, visual rating about 3 weeks after treatment, read-out: Post-emergence effect against ALOMY. The method in brief: (§1)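 Sandy loam pots, greenhouse. One-leaf stage (2–3 wk after sowing) foliar spray; WP/EC in water + 0.5% additive, 600 l/ha; 20–320 g/ha. Visual score ~3 wk, 0–100% vs untreated.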

Data set [1] concerns DIGSA. The description is as above. Conditions: Digitaria sanguinalis, 504 h, visual rating about 3 weeks after treatment, read-out: Post-emergence effect against DIGSA. Type of data set: in vivo, Digitaria sanguinalis. The method in brief:
as §1

The subject of data set [2] is DIGSA. In words: Pre-emergence herbicidal effect, greenhouse pot test. Conditions: 320 g/ha, scored visually after about 3 weeks vs untreated controls. The class given is in vivo, Digitaria sanguinalis. The text has this:
(§2) Seeds of monocotyledonous and dicotyledonous weed plants and crop plants are placed in plastic or organic planting pots and covered with soil. The compounds of the invention, formulated in the form of wettable powders (WP) or as emulsion concentrates (EC), are then applied to the surface of the covering soil as aqueous suspension or emulsion with addition of 0.5% additive at a water application rate equivalent to 600 l/ha. After the treatment, the pots are placed in a greenhouse and kept under good growth conditions for the trial plants. After about 3 weeks, the effect of the preparations is scored visually in comparison with untreated controls as percentages. For example, 100% activity=the plants have died, 0% activity=like control plants.
(§3) Tables 1a to 19c below show the effects/crop compatibilities of selected compounds of the general formula (I) on various harmful plants at an application rate corresponding to 20 to 320 g/ha, which were obtained by the trial procedure specified above.
(§4) • ALOMY: Alopecurus myosuroides SETVI: Setaria viridis • AVEFA: Avena fatua POLCO: Fallopia convolvulus • AMARE: Amaranthus retroflexus ECHCG: Echinochloa crus-galli • LOLRJ: Lolium rigidum STEME: Stellaria media • VERPE: Veronica persica MATIN: Tripleurospermum inodorum • DIGSA: Digitaria sanguinalis ABUTH: Abutylon threophrasti • TRZAS: Triticum aestivum VIOTR: Viola tricolor • BRSNW: Brassica napus ZEAMX: Zea mays • PHBPU: Ipomoea purpurea GLXMA: Glycine max • ORYSA: Oryza sativa HORMU: Hordeum murinum

For data set [3], the system named is PHBPU. Described as above. Type of data set: in vivo, Ipomoea purpurea. Conditions: 320 g/ha, scored visually after about 3 weeks vs untreated controls.
From the text: as §2, §3, §4

For data set [4], the system named is SETVI. The data set can be described thus: Post-emergence herbicidal effect, greenhouse pot test. The class given is in vivo, Setaria viridis. Conditions: 320 g/ha. The method in brief: as §1
In data set [5] the test system is ECHCG. In words: Pre-emergence herbicidal effect, greenhouse pot test. The class given is in vivo, Echinochloa crus-galli. Conditions: Echinochloa crus-galli, 504 h, 320 g/ha, scored visually after about 3 weeks vs untreated controls, read-out: Pre-emergence effect at 320 g/ha against ECHCG in %.
From the text: as §2, §3, §4

Data set [6] concerns POLCO. The data set can be described thus: Post-emergence herbicidal effect, greenhouse pot test. Type of data set: in vivo, Fallopia convolvulus. Conditions: Fallopia convolvulus, 504 h, read-out: Post-emergence effect against POLCO in %. The method in brief:
as §1

In a further data set the test system is AVEFA. In words: Pre-emergence herbicidal effect, greenhouse pot test. The class given is in vivo, Avena fatua. Conditions: 320 g/ha, scored visually after about 3 weeks vs untreated controls.
From the text: as §2, §3, §4

The subject of data set [7] is TRZAS. In words: Pre-emergence herbicidal effect and crop plant compatibility, greenhouse pot test. Conditions: 80 g/ha, scored visually after about 3 weeks vs untreated controls. Type of data set: in vivo, Triticum aestivum.
From the text: as §2, §3, §4

In data set [8] the test system is SETVI. In words: Pre-emergence herbicidal effect, greenhouse pot test. Type of data set: in vivo, Setaria viridis. Conditions: Setaria viridis, 504 h, 320 g/ha, scored visually after about 3 weeks vs untreated controls, read-out: Pre-emergence effect at 320 g/ha against SETVI in %.
From the text: as §2, §3, §4

Data set [9] deals with ZEAMX. In words: Pre-emergence herbicidal effect and crop plant compatibility, greenhouse pot test. The class given is in vivo, Zea mays. Conditions: 80 g/ha, scored visually after about 3 weeks vs untreated controls.
From the text: as §2, §3, §4

Data set [10] deals with LOLRI. The data set can be described thus: Pre-emergence herbicidal effect, greenhouse pot test. Type of data set: in vivo, Lolium rigidum. Conditions: 320 g/ha, scored visually after about 3 weeks vs untreated controls.
From the text: as §2, §3, §4

For data set [11], the system named is PHBPU. The data set can be described thus: Post-emergence herbicidal effect, greenhouse pot test. Conditions: 320 g/ha. The class given is in vivo, Ipomoea purpurea. In short, it runs like this: as §1
In data set [12] the test system is LOLRI. The description is as above. Type of data set: in vivo, Lolium rigidum. Conditions: Lolium rigidum, 504 h, read-out: Post-emergence effect against LOLRI in %. In short, it runs like this: as §1
The next data set deals with AMARE. The data set can be described thus: Pre-emergence herbicidal effect, greenhouse pot test. The class given is in vivo, Amaranthus retroflexus. Conditions: scored visually after about 3 weeks vs untreated controls.
From the text: as §2, §3, §4

For data set [13], the system named is POLCO. The data set is described as above. Conditions: Fallopia convolvulus, 504 h, 320 g/ha, scored visually after about 3 weeks vs untreated controls, read-out: Pre-emergence effect at 320 g/ha against POLCO in %. Type of data set: in vivo, Fallopia convolvulus.
From the text: as §2, §3, §4

Another data set has as its system VERPE. In words: Post-emergence herbicidal effect, greenhouse pot test. The class given is in vivo, Veronica persica. Conditions: Veronica persica, 504 h, read-out: Post-emergence effect against VERPE in %. The method in brief:
as §1

The test system of data set [14] is MATIN. The data set can be described thus: Pre-emergence herbicidal effect, greenhouse pot test. Type of data set: in vivo, Tripleurospermum inodorum. Conditions: Tripleurospermum inodorum, 504 h, 320 g/ha, scored visually after about 3 weeks vs untreated controls, read-out: Pre-emergence effect at 320 g/ha against MATIN in %.
From the text: as §2, §3, §4

Data set [15] deals with MATIN. The data set can be described thus: Post-emergence herbicidal effect, greenhouse pot test. Type of data set: in vivo, Tripleurospermum inodorum. Conditions: Tripleurospermum inodorum, 504 h, 320 g/ha, read-out: Post-emergence effect against MATIN in %. The method in brief:
as §1

Data set [16] deals with ECHCG. Described as above. The class given is in vivo, Echinochloa crus-galli. The method in brief: as §1
Data set [17] has as its system GLXMA. The data set can be described thus: Pre-emergence herbicidal effect and crop plant compatibility, greenhouse pot test. Type of data set: in vivo, Glycine max. Conditions: 80 g/ha, scored visually after about 3 weeks vs untreated controls.
From the text: as §2, §3, §4

In data set [18] the test system is ZEAMX. In words: Post-emergence herbicidal effect and crop plant compatibility, greenhouse pot test. The class given is in vivo, Zea mays. Conditions: 20 g/ha, one-leaf stage, rated visually after about 3 weeks vs untreated controls. The method in brief: (§5)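 Visual % activity scored roughly 3 weeks post-spray against untreated plants, where 100% means death and 0% equals control. Plants were treated at the one-leaf stage, 2 to 3 weeks after sowing in sandy loam, at 20 to 320 g/ha.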

In data set [19] the test system is TRZAS. The description is as above. Type of data set: in vivo, Triticum aestivum. Conditions: for Post-emergence effect against TRZAS: visual rating about 3 weeks after treatment, crop plant. The method in brief:
as §5

The subject of data set [20] is GLXMA. Described as above. Type of data set: in vivo, Glycine max. Conditions: 20 g/ha, visual rating about 3 weeks after treatment, crop plant.
From the text: as §4
Seeds of monocotyledonous and dicotyledonous weeds and crop plants are placed in sandy loam in plastic or organic planting pots, covered with soil and cultivated in a greenhouse under controlled growth conditions. 2 to 3 weeks after sowing, the trial plants are treated at the one-leaf stage. The compounds of the invention, formulated in the form of wettable powders (WP) or as emulsion concentrates (EC), are then sprayed onto the green parts of the plants as aqueous suspension or emulsion with addition of 0.5% additive at a water application rate of 600 l/ha (converted). After the test plants have been kept in the greenhouse under optimum growth conditions for about 3 weeks, the activity of the preparations is rated visually in comparison to untreated controls. For example, 100% activity=the plants have died, 0% activity=like control plants.
Tables 20a to 38c below show the effects/crop compatibilities of selected compounds of the general formula (I) on various harmful plants at an application rate corresponding to 20 to 320 g/ha, which were obtained by the trial procedure specified above.

Structures are written as SMILES.

For `COC(=O)C(OC)Oc1nn(-c2ncccc2F)c(-c2ccc(F)cc2F)c1Br` (stereo not shown) [Example I-07], the pest or weed control at 80 g/ha in the data set with ALOMY (80 g/ha) was found to be 90%; with DIGSA [1] (80 g/ha), 80%; in the data set with POLCO [6] (80 g/ha) it was 80%; in the data set on LOLRI [12] (80 g/ha) it was 80%; in the data set on VERPE (80 g/ha) it was 80%; with ECHCG [16] (Echinochloa crus-galli, 504 h, 80 g/ha, read-out: Post-emergence effect against ECHCG in %), 80%. In addition, the pest or weed control at 320 g/ha in the data set with ALOMY (320 g/ha) is 90%; in the data set with DIGSA [1] (320 g/ha) it was 90%; in the data set on SETVI [4] (Setaria viridis, 504 h, read-out: Post-emergence effect against SETVI in %), 80%; in the data set on ECHCG [5] it was 90%; in the data set on POLCO [6] (320 g/ha), 90%; in the data set with SETVI [8], 100%. In addition, the pest or weed control at 320 g/ha stood at 80% in the data set on PHBPU [11] (Ipomoea purpurea, 504 h, read-out: Post-emergence effect against PHBPU in %); 80% in the data set on LOLRI [12] (320 g/ha); 90% in the data set with AMARE (Amaranthus retroflexus, 504 h, 320 g/ha, read-out: Pre-emergence effect at 320 g/ha against AMARE in %); 80% with POLCO [13]; 80% in the data set with VERPE (320 g/ha); 90% in the data set on MATIN [14]. Moreover, the pest or weed control at 320 g/ha in the data set with MATIN [15] was 80%; with ECHCG [16] (Echinochloa crus-galli, 504 h, 320 g/ha, read-out: Post-emergence effect against ECHCG in %) it was 80%. For the same compound, the “Pre-emergence effect at 320 g/ha against DIGSA in %” value in the data set on DIGSA [2] worked out at 90%. The “Pre-emergence effect at 320 g/ha against PHBPU in %” value in the data set on PHBPU [3] was 90%. Further, the “Pre-emergence effect at 320 g/ha against AVEFA in %” value in the data set on AVEFA was determined as 80%. In addition, the “Pre-emergence effect at 80 g/ha against TRZAS in %” value in the data set on TRZAS [7] is listed as 20%. In addition, the “Pre-emergence effect at 80 g/ha against ZEAMX in %” value with ZEAMX [9] came out at 10%. In addition, in the data set on LOLRI [10], the “Pre-emergence effect at 320 g/ha against LOLRI in %” value is reported as 90%. Also, in the data set on AMARE (80 g/ha), the “Pre-emergence effect at 80 g/ha against AMARE in %” value was found to be 80%. The “Pre-emergence effect at 80 g/ha against GLXMA in %” value with GLXMA [17] worked out at 10%.
Take `COC(Oc1nn(-c2cccc(C)c2F)c(-c2ccnc(F)c2)c1Br)C(=O)O` (stereo not shown) [Example I-92]: the “Post-emergence effect against SETVI in %” value in the data set with SETVI [4] was 80%. Moreover, in the data set on ZEAMX [18], the “Post-emergence effect at 20 g/ha against ZEAMX in %” value is on record as 20%. In the data set on TRZAS [19] (20 g/ha, one-leaf stage, rated visually after about 3 weeks vs untreated controls), the “Post-emergence effect at 20 g/ha against TRZAS in %” value is 0%. In addition, the “Post-emergence effect against TRZAS” value in the data set on TRZAS [19] (80 g/ha) stood at 10%; in the data set with TRZAS [19] (320 g/ha), 20%. In the data set on PHBPU [11], the “Post-emergence effect against PHBPU in %” value was found to be 80%. In addition, the “Post-emergence effect against GLXMA” value in the data set with GLXMA [20] is 10%. Moreover, the “Post-emergence effect against ECHCG in %” value is 80% in the data set with ECHCG [16] (80 g/ha) and 90% with ECHCG [16] (320 g/ha).

(Values after patent US20240391862A1, “(1,4,5-TRISUBSTITUTED-1H-PYRAZOL-3-YL)OXY-2-ALKOXY ALKYL ACIDS AND THEIR DERIVATIVES, THEIR SALTS AND THEIR USE AS HERBICIDAL AGENTS” (Bayer AKtiengesellschaft, priority 2021, published 2024).)
